Structures are written as SMILES. Values after ≈ are worked out from the molar mass of the structure shown. Like-named read-outs stand apart in the source and are kept apart here.

Results on 14 compounds are retold here after US8772286B2, “MK2 inhibitors” (Merck Sharp & Dohme B.V., priority 2009, dated 2014).

The nature of data set [1]: Solubility determination of MK2 inhibitors (kinetic aqueous solubility, UPLC). Type of data set: physicochemical. Conditions: aqueous buffer (system solution from pION inc.), 22 °C, pH 7.4, aqueous buffer, kinetic from dmso stock. Put shortly: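 Kinetic shake-flask solubility (mg/L) at pH 7.4, room temperature (21-23° C.), 1% final DMSO from 10 mM DMSO stock, duplicates. Shaken 24 h, filtered (0.45 um), 1-propanol added to filtrate; dissolved compound quantified by UPLC-UV against external DMSO calibration line of the same compound.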

The target of data set [2] is T1, MK2 enzyme (Homo sapiens, UniProt P49137).
T1 construct: MK2 enzyme (active enzyme (peptide 46-end (Millipore))); purchased Millipore
T1 sequence (P49137 46-400 limits assumed): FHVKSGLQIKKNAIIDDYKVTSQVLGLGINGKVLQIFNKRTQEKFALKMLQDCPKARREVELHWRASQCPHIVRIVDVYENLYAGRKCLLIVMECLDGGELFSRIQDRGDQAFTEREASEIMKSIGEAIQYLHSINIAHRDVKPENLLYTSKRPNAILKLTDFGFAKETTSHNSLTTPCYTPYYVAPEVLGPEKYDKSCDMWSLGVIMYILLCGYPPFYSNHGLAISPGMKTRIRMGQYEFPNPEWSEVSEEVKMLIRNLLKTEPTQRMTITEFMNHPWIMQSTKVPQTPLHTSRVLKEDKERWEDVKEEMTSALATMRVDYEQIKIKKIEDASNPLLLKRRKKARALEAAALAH
Put plainly: MK2 enzyme activity, IMAP fluorescence polarization assay. Type of data set: biochemical. In a few lines: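 Enzyme kept in KR buffer (10 mM Tris-HCl, 10 mM MgCl2, 0.01% Tween-20, 2 mM DTT, pH 7.2) and acting on a fluorescein-labeled peptide substrate; final compound range 10 μM to 0.316 nM. After 60 min at room temperature, FP at 535 nm was read. Signal as percent of the with/without-ATP control difference, and EC50 by curve fit.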
(In general: Fluorescence polarisation rises when a labelled molecule tumbles more slowly, as on binding a larger partner.)

[3] abbreviates: pH 7.4, room temperature, about 1% DMSO, 24 h shaking, read-out: solubility.
Where [4] appears, read: MK2 IMAP assay, 1 μM ATP, 30 min pre-incubation, 2 h room temperature, read-out: pEC50 value (converted).

As to `O=C1NCC2(CCNCC2)c2[nH]c(-c3ccnc(-c4ccc(Oc5ccccc5)cc4)n3)cc21` [1—15, 2′-(2-(4-phenoxyphenyl)pyrimidin-4-yl)-5′,6′-dihydrospiro[piperidine-4,7′-pyrrolo[3,2-c]pyridin]-4′(1′H)-one], in data set [1] (setting [3]), the solubility at 24 h is not below 50 mg/L. Also, the EC50 in data set [2] (setting [4]) is 3.16 to 31.6 nM.
The like results for `O=C1NCC2(CCNCC2)c2[nH]c(-c3ccnc(-c4ccc(C(F)(F)F)cc4)n3)cc21` [1—17, 2′-(2-(4-(trifluoromethyl)phenyl)pyrimidin-4-yl)-5′,6′-dihydrospiro[piperidine-4,7′-pyrrolo[3,2-c]pyridin]-4′(1′H)-one] were, in that order, not below 50 mg/L and 3.16 to 31.6 nM.
Consider `O=C1NCC2(CCNCC2)c2[nH]c(-c3ccnc(-c4ccc5c(c4)OCO5)c3)cc21` [8—3, 2′-(2-(benzo[d][1,3]dioxol-5-yl)pyridin-4-yl)-5′,6′-dihydrospiro[piperidine-4,7′-pyrrolo[3,2-c]pyridin]-4′(1′H)-one], for which the solubility at 24 h in data set [1] (setting [3]) was not below 50 mg/L. Moreover, the EC50 in data set [2] (setting [4]) is not above 3.16 nM.
The like results for `CNC(=O)c1ccc(-c2ncc(F)c(-c3cc4c([nH]3)C3(CCNCC3)CNC4=O)n2)cc1` [4—4, 4-(5-fluoro-4-(4′-oxo-1′,4′,5′,6′-tetrahydrospiro[piperidine-4,7′-pyrrolo[3,2-c]pyridine]-2′-yl)pyrimidin-2-yl)-N-methylbenzamide] were, in that order, 20 to 50 mg/L (≈ 46 to 115 µM) and 3.16 to 31.6 nM.
As to `O=C1NCC2(CCNCC2)c2[nH]c(-c3ccnc(-c4ccc5c(c4)OCO5)n3)cc21` [1—7, 2′-(2-(benzo[d][1,3]dioxol-5-yl)pyrimidin-4-yl)-5′,6′-dihydrospiro[piperidine-4,7′-pyrrolo[3,2-c]pyridin]-4′(1′H)-one], the solubility at 24 h in data set [1] (setting [3]) is 20 to 50 mg/L (≈ 49.6 to 124 µM). Besides, the EC50 in data set [2] (setting [4]) was 3.16 to 31.6 nM.
The like results for `O=C1NCC2(CCNCC2)c2[nH]c(-c3ccnc(-c4nc5ccccc5s4)c3)cc21` [Example 9—1, 2′-(2-(benzo[d]thiazol-2-yl)pyridin-4-yl)-5′,6′-dihydrospiro[piperidine-4,7′-pyrrolo[3,2-c]pyridin]-4′(1′H)-one] were, in that order, not below 50 mg/L and 3.16 to 31.6 nM.
In the case of `O=C1NCCc2[nH]c(-c3ccnc(-c4cc5ccccc5o4)c3)cc21` [16_7 Formula (XV)], the solubility at 24 h in data set [1] (Table 1, comparison compound of Formula (XV) without spiro ring, pH 7.4, read-out: Solubility pH 7.4 (mg/L), Formula (XV)) was 2 mg/L. In data set [2], this compound showed an EC50 of 126 nM.
Turning to `CC(C)Cc1ccc(-c2nccc(-c3cc4c([nH]3)C3(CCNCC3)CNC4=O)n2)cc1` [1—23, 2′-(2-(4-isobutylphenyl)pyrimidin-4-yl)-5′,6′-dihydrospiro[piperidine-4,7′-pyrrolo[3,2-c]pyridin]-4′(1′H)-one], the solubility at 24 h in data set [1] (setting [3]) is not below 50 mg/L. For the same compound, in data set [2] (setting [4]), the EC50 was 3.16 to 31.6 nM.
Regarding `O=C1NCC2(CCNCC2)c2[nH]c(-c3ccnc(-c4ccc(Cl)cc4F)n3)cc21` [1—32, 2′-(2-(4-chloro-2-fluorophenyl)pyrimidin-4-yl)-5′,6′-dihydrospiro[piperidine-4,7′-pyrrolo[3,2-c]pyridin]-4′(1′H)-one], the solubility at 24 h in data set [1] (setting [3]) is not below 50 mg/L. In addition, in data set [2] (setting [4]), the EC50 is 3.16 to 31.6 nM.
With `CC(C)(C)c1ccc(-c2nccc(-c3cc4c([nH]3)C3(CCNCC3)CNC4=O)n2)cc1` [1—22, 2′-(2-(4-tert-butylphenyl)pyrimidin-4-yl)-5′,6′-dihydrospiro[piperidine-4,7′-pyrrolo[3,2-c]pyridin]-4′(1′H)-one], the solubility at 24 h in data set [1] (setting [3]) is not below 50 mg/L. For the same compound, the EC50 in data set [2] (setting [4]) was 3.16 to 31.6 nM.
Taken in the same sequence, the figures for `O=C1NCC2(CCNCC2)c2[nH]c(-c3ccnc(-c4cccc(OC(F)(F)F)c4)n3)cc21` [1—16, 2′-(2-(3-(trifluoromethoxy)phenyl)pyrimidin-4-yl)-5′,6′-dihydrospiro[piperidine-4,7′-pyrrolo[3,2-c]pyridin]-4′(1′H)-one] were not below 50 mg/L and 3.16 to 31.6 nM.
Taken in the same sequence, the figures for `O=C1NCC2(CCNCC2)c2[nH]c(-c3ccnc(-c4ccccc4F)n3)cc21` [1—4, 2′-(2-(2-fluorophenyl)pyrimidin-4-yl)-5′,6′-dihydrospiro[piperidine-4,7′-pyrrolo[3,2-c]pyridin]-4′(1′H)-one] were 20 to 50 mg/L (≈ 53 to 132 µM) and 3.16 to 31.6 nM.
The like results for `O=C1NCC2(CCCNC2)c2[nH]c(-c3ccnc(-c4ccc5c(c4)OCO5)n3)cc21` (stereo not shown) [5—2, 2′-(2-(benzo[d][1,3]dioxol-5-yl)pyrimidin-4-yl)-5′,6′-dihydrospiro[piperidine-3,7′-pyrrolo[3,2-c]pyridin]-4′(1′H)-one] were, in that order, not below 50 mg/L and 3.16 to 31.6 nM.
Consider `O=C1NCC2(CCNC2)c2[nH]c(-c3ccnc(-c4cnc5ccccc5c4)n3)cc21` (stereo not shown) [17_3 Formula (I)], for which the solubility at 24 h in data set [1] (Table 2, compound of Formula (I) with amine-containing spiro ring, pH 7.4, read-out: Solubility pH 7.4 (mg/L), Formula (I)) was 37 mg/L. Besides, in data set [2] (Table 2, compound of Formula (I) with amine-containing spiro ring, MK2 IMAP assay, read-out: pEC50, Formula (I) (converted)), the EC50 is 2.51 nM.
